According to patent US10407409B2, “6-(5-hydroxy-1H-pyrazol-1-yl)nicotinamide inhibitors of PHD” (Takeda Pharmaceutical Company Limited, priority 2013, dated 2019):

Assays:
[1] = target: PHD2 enzyme (residues 181-417) (Homo sapiens (Human), UniProt Q9GZT9); test: Inhibition of PHD enzyme (LC/MS peptide hydroxylation assay); assay type: biochemical; details: PHD2 (residues 181-417) 5 nM, 60 min pre-incubation; -log(IC50), IC50 molar
In short: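 Hydroxylated peptide quantified by LC/MS after 60 min turnover of 1 uM biotinylated peptide with 2 uM 2-oxoglutarate and 1 mM ascorbate, stopped by excess tight-binding inhibitor. Beforehand, 5 nM enzyme and compound were preincubated 60 min at RT, pH 7.3 HEPES/KCl/TCEP/FeCl2/BSA buffer. Values as pIC50 (−log molar IC50).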

[2] = test system: HIF1a protein in H9c2 rat cardiomyocytes; test: Cell-based HIF-alpha stabilization assay (inhibition of PHD in cells); details: Rattus norvegicus, H9c2, 24 h, 24 hrs compound incubation, HIF1a protein by ELISA, read-out: Inhibition of PHD in cells (pEC50) (converted)
In short: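 HIF1a stabilization was measured by ELISA on lysates of H9c2 rat cardiomyocytes after 24 h exposure to 11 serial compound concentrations, expressed relative to the desferrioxamine maximum. Curve fits gave EC50. EC50pos denotes the concentration producing half the desferrioxamine maximal response.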

Chain of PHD2 enzyme (residues 181-417) (Q9GZT9 181-417): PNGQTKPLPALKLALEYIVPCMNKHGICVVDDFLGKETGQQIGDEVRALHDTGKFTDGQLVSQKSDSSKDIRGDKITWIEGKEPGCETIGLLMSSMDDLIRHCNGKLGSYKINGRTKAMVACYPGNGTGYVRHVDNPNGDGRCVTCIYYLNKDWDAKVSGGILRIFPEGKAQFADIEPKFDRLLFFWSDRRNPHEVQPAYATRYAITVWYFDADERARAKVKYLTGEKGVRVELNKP

SMILES | PHD Inhibition (pIC50) [1] | EC50 [2] [nM]
COCCCNC(=O)c1ccc(-n2ncc(-c3ccc(C#N)cc3)c2O)nc1 [Example 148, 6-(4-(4-cyanophenyl)-5-hydroxy-1H-pyrazol-1-yl)-N-(3-methoxypropyl)nicotinamide] | 7.57 | 631
COCC1(NC(=O)c2ccc(-n3ncc(-c4ccc(C#N)cc4)c3O)nc2)CCCC1 [Example 149, 6-(4-(4-cyanophenyl)-5-hydroxy-1H-pyrazol-1-yl)-N-(1-(methoxymethyl)cyclopentyl)nicotinamide] | 7.28 | 776
CNC(=O)c1ccc(-n2ncc(-c3ccc(C#N)cc3)c2O)nc1 [Example 150, 6-(4-(4-cyanophenyl)-5-hydroxy-1H-pyrazol-1-yl)-N-methylnicotinamide] | 7.58 | 2510
N#Cc1ccc(-c2cnn(-c3ccc(C(=O)NC4CCCC4)cn3)c2O)cc1 [Example 151, 6-(4-(4-cyanophenyl)-5-hydroxy-1H-pyrazol-1-yl)-N-cyclopentylnicotinamide] | 7.12 | 3630
COCCNC(=O)c1ccc(-n2ncc(-c3ccc(C#N)cc3)c2O)nc1 [Example 152, 6-(4-(4-cyanophenyl)-5-hydroxy-1H-pyrazol-1-yl)-N-(2-methoxyethyl)nicotinamide] | 7.6 | 2040
N#Cc1ccc(-c2cnn(-c3ccc(C(=O)NCC4CCCO4)cn3)c2O)cc1 (stereo not shown) [Example 153, 6-(4-(4-cyanophenyl)-5-hydroxy-1H-pyrazol-1-yl)-N-((tetrahydrofuran-2-yl)methyl)nicotinamide] | 7.57 | 1380
N#Cc1ccc(-c2cnn(-c3ccc(C(=O)N[C@@H]4CCOC4)cn3)c2O)cc1 [Example 154, (R)-6-(4-(4-cyanophenyl)-5-hydroxy-1H-pyrazol-1-yl)-N-(tetrahydrofuran-3-yl)nicotinamide] | 7.68 | 1480
N#Cc1ccc(-c2cnn(-c3ccc(C(=O)NC4CCCOC4)cn3)c2O)cc1 (stereo not shown) [Example 155, 6-(4-(4-cyanophenyl)-5-hydroxy-1H-pyrazol-1-yl)-N-(tetrahydro-2H-pyran-3-yl)nicotinamide] | 7.62 | 1550
COCC(NC(=O)c1ccc(-n2ncc(-c3ccc(C#N)cc3)c2O)nc1)C(C)C (stereo not shown) [Example 156, 6-(4-(4-cyanophenyl)-5-hydroxy-1H-pyrazol-1-yl)-N-(1-methoxy-3-methylbutan-2-yl)nicotinamide] | 7.47 | 891
N#Cc1cnn(-c2cnn(-c3ccc(C(=O)NCc4ccccc4)cn3)c2O)c1 [Example 157, N-benzyl-6-(4-cyano-5′-hydroxy-1′H-[1,4′-bipyrazol]-1′-yl)nicotinamide] | 6.97 | 1700
N#Cc1cnn(-c2cnn(-c3ccc(C(=O)NCC4CCOCC4)cn3)c2O)c1 [Example 158, 6-(4-cyano-5′-hydroxy-1′H-[1,4′-bipyrazol]-1′-yl)-N-((tetrahydro-2H-pyran-4-yl)methyl)nicotinamide] | 6.71 | 9550
CC(C)NC(=O)c1ccc(-n2ncc(-c3ccc(C#N)cc3)c2O)nc1 [Example 159, 6-(4-(4-cyanophenyl)-5-hydroxy-1H-pyrazol-1-yl)-N-isopropylnicotinamide] | 7.15 | 912
CC(C)CNC(=O)c1ccc(-n2ncc(-c3ccc(C#N)cc3)c2O)nc1 [Example 160, 6-(4-(4-cyanophenyl)-5-hydroxy-1H-pyrazol-1-yl)-N-isobutylnicotinamide] | 6.9 | 759
N#Cc1ccc(-c2cnn(-c3ccc(C(=O)NC4CC4)cn3)c2O)cc1 [Example 161, 6-(4-(4-cyanophenyl)-5-hydroxy-1H-pyrazol-1-yl)-N-cyclopropylnicotinamide] | 7.18 | 447
CCOCCCNC(=O)c1ccc(-n2ncc(-c3ccc(C#N)cc3)c2O)nc1 [Example 162, 6-(4-(4-cyanophenyl)-5-hydroxy-1H-pyrazol-1-yl)-N-(3-ethoxypropyl)nicotinamide] | 7.23 | 1150
CC(C)OCCCNC(=O)c1ccc(-n2ncc(-c3ccc(C#N)cc3)c2O)nc1 [Example 163, 6-(4-(4-cyanophenyl)-5-hydroxy-1H-pyrazol-1-yl)-N-(3-isopropoxypropyl)nicotinamide] | 7.28 | 1480

SMILES | PHD Inhibition (pIC50) [1] | EC50 [2] [nM]
N#Cc1ccc(-c2cnn(-c3ccc(C(=O)N[C@H]4CC[C@@H](O)CC4)cn3)c2O)cc1 [Example 164, 6-(4-(4-cyanophenyl)-5-hydroxy-1H-pyrazol-1-yl)-N-((1 s,4s)-4-hydroxycyclohexyl)nicotinamide] | 7.5 | 525
N#Cc1ccc(-c2cnn(-c3ccc(C(=O)N[C@H]4CC[C@H](O)CC4)cn3)c2O)cc1 [Example 165, 6-(4-(4-cyanophenyl)-5-hydroxy-1H-pyrazol-1-yl)-N-((1r,4r)-4-hydroxycyclohexyl)nicotinamide] | 7.68 | 251
COc1cc(-c2cnn(-c3ccc(C(=O)N[C@H]4CC[C@@H](O)CC4)cn3)c2O)ccn1 [Example 166, 6-(5-hydroxy-4-(2-methoxypyridin-4-yl)-1H-pyrazol-1-yl)-N-((1s,4s)-4-hydroxycyclohexyl)nicotinamide] | 7.28 | 437
COc1cc(-c2cnn(-c3ccc(C(=O)N[C@H]4CC[C@H](O)CC4)cn3)c2O)ccn1 [Example 167, 6-(5-hydroxy-4-(2-methoxypyridin-4-yl)-1H-pyrazol-1-yl)-N-((1r,4r)-4-hydroxycyclohexyl)nicotinamide] | 7.46 | 282
COCCC1(NC(=O)c2ccc(-n3ncc(-c4ccc(C#N)cc4OC)c3O)nc2)CC1 [Example 168, 6-(4-(4-cyano-2-methoxyphenyl)-5-hydroxy-1H-pyrazol-1-yl)-N-(1-(2-methoxyethyl)cyclopropyl)nicotinamide] | 8.1 | 437
C[C@H]1C[C@@H]1NC(=O)c1ccc(-n2ncc(-c3ccc(C#N)cc3)c2O)nc1 [Example 169, 6-(4-(4-cyanophenyl)-5-hydroxy-1H-pyrazol-1-yl)-N-((1s,2s)-2-methylcyclopropyl)nicotinamide] | 7.22 | 891
C[C@@H](NC(=O)c1ccc(-n2ncc(-c3ccc(C#N)cc3)c2O)nc1)C(F)(F)F [Example 170, (R)-6-(4-(4-cyanophenyl)-5-hydroxy-1H-pyrazol-1-yl)-N-(1,1,1-trifluoropropan-2-yl)nicotinamide] | 7.29 | 2750
C[C@H](NC(=O)c1ccc(-n2ncc(-c3ccc(C#N)cc3)c2O)nc1)C(F)(F)F [Example 171, (S)-6-(4-(4-cyanophenyl)-5-hydroxy-1H-pyrazol-1-yl)-N-(1,1,1-trifluoropropan-2-yl)nicotinamide] | 7.18 | 1450
C[C@@H](NC(=O)c1ccc(-n2ncc(-c3ccc(C#N)cc3)c2O)nc1)C1CCOCC1 [Example 172, (R)-6-(4-(4-cyanophenyl)-5-hydroxy-1H-pyrazol-1-yl)-N-(1-(tetrahydro-2H-pyran-4-yl)ethyl)nicotinamide] | 7.33 | 1260
C[C@H](NC(=O)c1ccc(-n2ncc(-c3ccc(C#N)cc3)c2O)nc1)C1CCOCC1 [Example 173, (S)-6-(4-(4-cyanophenyl)-5-hydroxy-1H-pyrazol-1-yl)-N-(1-(tetrahydro-2H-pyran-4-yl)ethyl)nicotinamide] | 7.21 | 1100
N#Cc1ccc(-c2cnn(-c3ccc(C(=O)NCCC4CCOCC4)cn3)c2O)cc1 [Example 174, 6-(4-(4-cyanophenyl)-5-hydroxy-1H-pyrazol-1-yl)-N-(2-(tetrahydro-2H-pyran-4-yl)ethyl)nicotinamide] | 7.31 | 759
COCCC(C)(C)NC(=O)c1ccc(-n2ncc(-c3ccc(C#N)cc3)c2O)nc1 [Example 175, 6-(4-(4-cyanophenyl)-5-hydroxy-1H-pyrazol-1-yl)-N-(4-methoxy-2-methylbutan-2-yl)nicotinamide] | 7.37 | 490
COCCC(C)NC(=O)c1ccc(-n2ncc(-c3ccc(C#N)cc3)c2O)nc1 (stereo not shown) [Example 176, 6-(4-(4-cyanophenyl)-5-hydroxy-1H-pyrazol-1-yl)-N-(4-methoxybutan-2-yl)nicotinamide] | 7.53 | 398
N#Cc1ccc(-c2cnn(-c3ccc(C(=O)NCCC4CCOC4)cn3)c2O)cc1 (stereo not shown) [Example 177, 6-(4-(4-cyanophenyl)-5-hydroxy-1H-pyrazol-1-yl)-N-(2-(tetrahydrofuran-3-yl)ethyl)nicotinamide] | 7.64 | 309
N#Cc1ccc(-c2cnn(-c3ccc(C(=O)NCCC4CCCOC4)cn3)c2O)cc1 (stereo not shown) [Example 178, 6-(4-(4-cyanophenyl)-5-hydroxy-1H-pyrazol-1-yl)-N-(2-(tetrahydro-2H-pyran-3-yl)ethyl)nicotinamide] | 7.63 | 282
COCCCCNC(=O)c1ccc(-n2ncc(-c3ccc(C#N)cc3C)c2O)nc1 [Example 179, 6-(4-(4-cyano-2-methylphenyl)-5-hydroxy-1H-pyrazol-1-yl)-N-(4-methoxybutyl)nicotinamide] | 8.3 | 123
